The test system of experiment [1] is hypoxic-ischemic brain injury. The experiment in a line: hypoxic-ischemic brain injury mouse model, cerebral infarct volume. In kind it is in vivo. Particulars: direct acute administration of NPD1 (10 ng, 20 ng) after hypoxic-ischemic injury, compared to control (saline) group; FIG. 2A.
Experiment [2] relates to brain mitochondria.
Method: FIG. 2C is a western blot mean quantification for BAX 6A7 in naïve (n=6), saline (n=7) and NPD1 (n=8) at 4 h after ischemic injury.

In the case of `CC/C=C\C[C@H](O)\C=C/C=C/C=C/[C@H](O)C/C=C\C/C=C\CCC(=O)O` [NPD1, neuroprotection D1], in experiment [1], the cerebral infarct volumes entry is given as “significant reduction in cerebral infarct volumes”. Moreover, the “mitochondrial Ca2+ buffering capacity” value in experiment [2] (NPD1 treatment after hypoxic-ischemic injury) is listed as “preserved mitochondrial Ca2+ buffering capacity”. Also, the “mitochondria-related cell death pathways” value in experiment [2] (NPD1 treatment, BAX 6A7 western blot at 4 h after ischemic injury (FIG. 2C)) is given as “reduced mitochondria-related cell death pathways”.
